Experimental data as given in patent publication US11000586B2, “Adjuvant composition, vaccine composition containing the same, and method for producing both of them” (TERUMO KABUSHIKI KAISHA, priority 2013, dated 2021).

Key:
[1] = Release test: measurement of leakage
Method: The term “Membrane disruptive function” denotes the function to bring about release in the release test. The release test described in this specification is a test comprising or consisting of adding liposomes (dispersion) encapsulating an aqueous solution containing a quenching substance and a fluorescent substance and a dispersion of a sample for evaluation to a properly pH-adjusted aqueous solution, incubating the resulting aqueous solution at 37° C. for 90 minutes or 30 minutes, and measuring the fluorescence intensity of the incubated aqueous solution. This method permits the measurement of the amount of the fluorescent substance which has been released from the liposomes. […] The release test will be described in more detail in the Examples.
The evaluation was performed with the help of EYPC liposomes which contain Pyranine (as a fluorescent substance) and DPX (as a quencher).
EYPC (3000 nmol) dissolved in chloroform was measured and placed in a 10-mL eggplant-shaped flask, and the EYPC was made into thin film with a rotary evaporator. To the flask was added a Pyranine solution (500 μL), which is composed of Pyranine (35 mM), DPX (50 mM), and MES (25 mM), and has pH 7.4. The thin film in the flask was dispersed with the help of an ultrasonic irradiator (USC-J). The resulting dispersion was passed through a porous polycarbonate film having a pore diameter of 100 nm with the help of an extruder, so as to make the particle size uniform. The resulting dispersion underwent substitution of the outer aqueous layer with the help of MES Buffer and G100 column. Thus, there was obtained a dispersion of EYPC liposomes encapsulating the fluorescent substance. The concentration of the lipid was determined with the help of phospholipid C-test Wako, and then it was adjusted with MES Buffer so that phospholipid became 1.0 mmol/L.
The dispersion of EYPC liposomes (with its concentration adjusted) in an amount of 20 μL and the dispersion of a sample for evaluation in an amount of 20 μL were added to MES Buffer (with its pH adjusted) in an amount of 2960 μL. The resulting mixture underwent incubation at 37° C. for 90 or 30 minutes. Values resulting from incubation for 90 minutes are adopted in the Examples, unless otherwise indicated.
The leakage was calculated assuming that the sheer dispersion of EYPC liposomes has 0% and the dispersion of EYPC liposomes incorporated with 30 μL of 10-fold diluted Triton-X100 has 100%. Specifically, the leakage was calculated from the following formula, L denotes the intensity of fluorescence measured, L0 denotes the intensity of fluorescence of the sheer dispersion of EYPC liposomes containing the fluorescent substance, and L100 denotes the intensity of fluorescence of the dispersion of EYPC liposomes incorporated with Triton-X100.

CD80 = experiment: Evaluation of stimulus to activate innate immune system: expression of CD80 in cultured mice spleen cells (flow cytometry); conditions: for CD80 MFI, Amphipathic substance: amphipathic substance alone; for fluorescence intensity of CD80PE compared with PBS: solution (5 μL) of sample added alone: peptide, OVA 800 μg/mL, DLPC 1000 nmol/mL, deoxycholic acid 1600 nmol/mL, FIG. 8(B)
Method: The evaluation of stimulus to activate innate immune system was performed as follows.
A spleen was harvested from C57BL/6N mice. The harvested spleen was injected with 500 μL of collagenase solution, 2 mg/mL (prepared with RPMI medium) followed by incubation at 37° C. for 30 minutes. The spleen was made into cell suspension by treatment with BD Falcon cell strainer. The cells underwent hemolysis with RBC lysis buffer, followed by washing with RPMI medium. The cells were dispersed into RPMI medium, and the number of cells was counted. The cells were used for the subsequent procedure.
The cells were inoculated into a 96-well dish such that 1.0×10^6 cells/100 μL. The cell dispersion was given 100 μL of RPMI medium containing a dispersion of different kind, followed by incubation overnight. These procedures were performed by using serum-free RPMI medium.
The cells were recovered and washed with BD stain buffer. Then, the cells underwent incubation together with Anti-CD11cFITC, 0.25 μg/100 μL (4° C. for 30 minutes), so that the cells were stained. After washing, the cells underwent again incubation with Anti-CD80PE, Anti-CD86PE, or Anti-CD40PE, 0.25 μg/100 μL (4° C. for 30 minutes), so that the cells were stained. After washing at least more than three times, the cells were evaluated by using the flow cytometer (Cytomics FC500, Software: CXP software ver. 2).

[2] = system: CTL (IFNγ-secreting cells/total CD8 positive cells); experiment: Evaluation of CTL induction rate, ICS method, after immunization of mice; type: in vivo, C57BL/6N mice; set-up: key to CTL induction rate, Low MPL / CTL induction rate, High MPL: ratio of IFNγ-secreting cells to total CD8 positive cells; conditions: for CTL induction rate, High MPL: high MPL (22.7); for CTL induction rate, High MPL / CTL induction rate, Low MPL: n=3; for CTL induction rate, Low MPL: low MPL (0.0227)
Method: Administration (100 μL/head) was performed by subcutaneous injection at one position on the back under anesthesia. […] For evaluation of cell-mediated immunity, administration was performed once and the assay was performed seven days after administration. For evaluation of humoral immunity, administration was performed twice. The second administration was performed 14 days after the first administration, and assay was performed seven days after the second administration.
The mice were sacrificed on the seventh day after the last administration and had its spleen harvested. The spleen was given RPMI medium (3.0 mL) containing 10% serum and then treated by the BD Falcon cell strainer. Thus there was obtained a suspension of cells. […] The cells were dispersed into RPMI medium containing 10% serum. The number of cells was counted. Thus there was obtained a dispersion of spleen cells.
For restimulation of the antigen, 10% serum-containing RPMI medium (100 μL) containing OVA peptide (40 μg/mL) was added, followed by incubation for three hours. Then, BD GolgiPlug was added such that its concentration was 0.2 μL/100 μL. Cell culture was performed overnight. In the case where the restimulation was not given, a 10% serum-containing RPMI medium not containing OVA peptide was used.
After washing, the cells were stained with Anti-CD8aPE (at 4° C. for 30 minutes), followed by washing again. Then the cells were permeabilized with Cytofix/Cytoperm. After washing, the cells were stained with Anti-IFNγFITC (at 4° C. for 30 minutes). […] CTL induction rate was calculated in terms of the ratio between the IFNγ secreting cells and the total CD8 positive cells.
It is known that MPL activates innate immune system and functions as an adjuvant even when used alone. It is also known that MPL induces cell-mediated immunity. Thus, a comparison was made as to the induction of cell-mediated immunity between MPL used alone and MPL used in combination with a pH-sensitive carrier in the form of the adjuvant composition. Each of the MPL and the adjuvant composition is administered together with an antigen. […] The above-mentioned solution or dispersion was subcutaneously administered once to the back of C57BL/6N mice, and the CTL induction rate was obtained according to the ICS method. The CTL induction rate is expressed in terms of the ratio of the IFNγ-secreting cells to the total CD8 positive cells in a specific area which is hardly affected by dead cells (IFNγ-secreting cells/total CD8 positive cells).

[3] = Table 2, pH-sensitive substance alone
[4] = antigen peptide 3.2 μg, DLPC, deoxycholic acid (160 nmol), subcutaneous once
[5] = antigen peptide 16 μg, DLPC, deoxycholic acid (160 nmol), subcutaneous once
[6] = antigen peptide 80 μg, DLPC, deoxycholic acid (160 nmol), subcutaneous once
[7] = antigen peptide 400 μg, DLPC, deoxycholic acid (160 nmol), subcutaneous once

C[C@H](CCC(=O)O)[C@H]1CC[C@H]2[C@@H]3[C@H](O)C[C@@H]4C[C@H](O)CC[C@]4(C)[C@H]3CC[C@]12C [Chenodeoxycholic acid]
leakage, Alone, pH 5.0 [1, 3]: 14.1 ± 0.9%
leakage, Alone, pH 7.4 [1, 3]: 0.7 ± 0.5%

Cc1c(C)c2c(c(C)c1O)CCC(C)(CCCC(C)CCCC(C)CCCC(C)C)O2 (racemic) [α-tocopherol, DL-α-tocopherol]
CD80 MFI, Amphipathic substance (CD80): 43.8 ± 4.9%
leakage, Alone, pH 5.0 ([1]; Table 1, substance alone): 10.6 ± 1.3%
leakage, Alone, pH 7.4 ([1]; Table 1, substance alone): 5.5 ± 0.3%

C[C@H](CCC(=O)O)[C@H]1CC[C@H]2[C@@H]3C[C@H](O)[C@@H]4C[C@H](O)CC[C@]4(C)[C@H]3CC[C@]12C [Hyodeoxycholic acid]
leakage, Alone, pH 5.0 [1, 3]: 12.6 ± 0.4%
leakage, Alone, pH 7.4 [1, 3]: 4.2 ± 0.9%

sorbitan oleic acid ester [Span 80]
CD80 MFI, Amphipathic substance (CD80): 39.6 ± 1.8%
leakage, Alone, pH 5.0 ([1]; Table 1, substance alone): 18.1 ± 1.0%
leakage, Alone, pH 7.4 ([1]; Table 1, substance alone): 6.1 ± 0.6%

CCCCCCCCCCCC(=O)OCCOCCOCCOCCOCCOCCOCCOCCOCCOCCOCCOCCOCCOCCOCCOCCOCCOCCOCCOCCOCC(OCCOCCOCCOCCOCCOCCOCCOCCOCCOCCOCCOCCOCCOCCOCCOCCOCCOCCOCCOCCO)C1OCC(OCCOCCOCCOCCOCCOCCOCCOCCOCCOCCOCCOCCOCCOCCOCCOCCOCCOCCOCCOCCO)C1OCCOCCOCCOCCOCCOCCOCCOCCOCCOCCOCCOCCOCCOCCOCCOCCOCCOCCOCCOCCO (stereo not shown) [Tween 20, polyoxyethylene sorbitan monolaurate ester]
CD80 MFI, Amphipathic substance (CD80): 38.0 ± 3.2%
leakage, Alone, pH 5.0 ([1]; Table 1, substance alone): 74.0 ± 2.0%
leakage, Alone, pH 7.4 ([1]; Table 1, substance alone): 70.4 ± 3.9%

CCCCCCCCCC(=O)OC[C@H](COP(=O)([O-])OCC[N+](C)(C)C)OC(=O)CCCCCCCCC [DDPC, 1,2-didecanoyl-sn-glycero-3-phosphatidylcholine]
CD80 MFI, Amphipathic substance (CD80): 36.5 ± 1.1%
leakage, Alone, pH 5.0 ([1]; Table 1, substance alone): 37.1 ± 1.3%
leakage, Alone, pH 7.4 ([1]; Table 1, substance alone): 17.4 ± 0.1%

Monophosphoryl lipid A [MPL alone]
leakage at a low pH value compared with PBS alone ([1]; MPL (dispersed in PBS or DMSO) in an amount equivalent to MPL content 0.227, FIG. 9(A)): equivalent to that in the case where PBS was used alone
CTL induction rate (%), Adjuvant composition (with antigen not restimulated) ([2]; DLPC with pH-sensitive compound 160 nmol, MPL content 0.227, OVA (80 μg), dispersion, n=1, antigen not restimulated): 0.14%
CTL induction rate (%), Adjuvant composition ([2]; DLPC with pH-sensitive compound 160 nmol, MPL content 0.227, OVA (80 μg), dispersion, n=1, antigen restimulated): 0.25%
CTL induction rate by adjuvant composition (%), Antigen: OVA ([2]; antigen OVA (80 μg), DLPC, MPL content 0.227, deoxycholic acid amount (nmol) varied, dispersion, n=1): 0.18%
CTL induction rate by adjuvant composition (%), Antigen: peptide ([2]; antigen peptide (80 μg), DLPC, MPL content 0.227, deoxycholic acid amount (nmol) varied, dispersion, n=1): 0.22%
CTL induction rate ([2]; antigen peptide (80 μg), MPL content 0.227 or equivalent, DLPC, deoxycholic acid (160 nmol), subcutaneous once, FIGS. 3 and 4): 0.27%
CTL induction rate, High MPL [2, 4]: 0.45
CTL induction rate, High MPL [2, 5]: 0.36
CTL induction rate, High MPL [2, 6]: 0.37
CTL induction rate, High MPL [2, 7]: 0.58
CTL induction rate, Low MPL [2, 4]: 0.14
CTL induction rate, Low MPL [2, 5]: 0.31
CTL induction rate, Low MPL [2, 6]: 0.26
CTL induction rate, Low MPL [2, 7]: 0.46
CTL induction rate (%), Amphipathic substance-MPL ([2]; mixed thin film of amphipathic substance (100 nmol) and MPL (0.227) dispersed in antigen solution, OVA (80 μg), n=1): 0.20%

CC(CCC(=O)NCC(=O)O)C1CCC2C3CCC4CC(O)CCC4(C)C3CC(O)C12C (stereo not shown) [Glycodeoxycholic acid]
leakage, Alone, pH 5.0 [1, 3]: 9.8 ± 0.8%
leakage, Alone, pH 7.4 [1, 3]: 1.9 ± 1.2%

CCCCCCCCCCCC(=O)OC[C@H](COP(=O)([O-])OCC[N+](C)(C)C)OC(=O)CCCCCCCCCCC [DLPC, 1,2-dilauroyl-sn-glycero-3-phosphatidylcholine]
CD80 MFI, Amphipathic substance (CD80): 38.5 ± 2.9%
fluorescence intensity of CD80PE compared with PBS (CD80): remained unchanged from that in the case where PBS was added
leakage, Alone, pH 5.0 ([1]; Table 1, substance alone): 5.5 ± 0.9%
leakage, Alone, pH 7.4 ([1]; Table 1, substance alone): 1.8 ± 1.2%

CC1(C)[C@@H](O[C@H]2O[C@H](C(=O)O)[C@@H](O)[C@H](O)[C@H]2O[C@@H]2O[C@H](C(=O)O)[C@@H](O)[C@H](O)[C@H]2O)CC[C@]2(C)[C@H]3C(=O)C=C4[C@@H]5C[C@@](C)(C(=O)O)CC[C@]5(C)CC[C@@]4(C)[C@]3(C)CC[C@@H]12 [Glycyrrhizinic acid]
leakage, Alone, pH 5.0 [1, 3]: 16.7 ± 2.9%
leakage, Alone, pH 7.4 [1, 3]: 4.2 ± 1.2%

B1: OVA: OVA protein (EndoFit Ovalbumin: from InvivoGen), model antigen (protein, UniProt P01012 2-386, looked up)
Ovalbumin: GSIGAASMEFCFDVFKELKVHHANENIFYCPIAIMSALAMVYLGAKDSTRTQINKVVRFDKLPGFGDSIEAQCGTSVNVHSSLRDILNQITKPNDVYSFSLASRLYAEERYPILPEYLQCVKELYRGGLEPINFQTAADQARELINSWVESQTNGIIRNVLQPSSVDSQTAMVLVNAIVFKGLWEKAFKDEDTQAMPFRVTEQESKPVQMMYQIGLFRVASMASEKMKILELPFASGTMSMLVLLPDEVSGLEQLESIINFEKLTEWTSSNVMEERKIKVYLPRMKMEEKYNLTSVLMAMGITDVFSSSANLSGISSAESLKISQAVHAAHAEINEAGREVVGSAEAGVDAASVSEEFRADHPFLFCIKHIATNAVLFFGRCVSP
fluorescence intensity of CD80PE compared with PBS (CD80): remained unchanged from that in the case where PBS was added
